≈ marks a conversion by molar mass, not a printed value. Where “and” joins values, the source holds several entries; their conditions need not be identical. Equal entries are not always repeated.
Legend:
Canidae = settings: oral, Dog Other; for LEL / NOEL: chronic, diet, M/F
Rattus norvegicus [1] = settings: for NOEL / LOEL: Hershberger; for LEL: uterotrophic, Active
Rattus norvegicus [2] = settings: oral, gavage, M/F
Rattus norvegicus [3] = settings: developmental; oral; gavage; M; Sprague-Dawley; generation: F1; F1: Testosterone (Testes)
Rattus norvegicus [4] = settings: chronic, duration: 2 years, oral, diet, M/F
Rattus norvegicus [5] = system: Rattus norvegicus
Oryctolagus sp. = settings: acute; dermal
[6] = duration: 26 weeks, increased organ weight
[7] = duration: 10 days, oral, gavage, Sprague-Dawley, inactive + Negative + Negative + neither + negative
[8] = duration: 10 days, oral, gavage, Sprague-Dawley, active + Antiandrogenic + anti-androgenic
[9] = subchronic, M, increased sgot and sgpt levels
[10] = duration: 1 years, decreased prostate weight + Increased RBC Heinz bodies
[11] = duration: 2 years, liver and kidney effects, reduced body weight, mortality
[12] = duration: 3 days, injection, subcutaneous
[13] = duration: 1 years, chronic pneumonitis
[14] = duration: 5 days, oral, gavage, Sprague-Dawley, active + Androgenic + androgenic + advanced age of PPS, histopathology effects on reproductive tissues
[15] = reduced body weight gain, erythrocyte count and hemoglobin level
[16] = subchronic, duration: 13 weeks, oral, diet, ICR
[17] = subchronic, duration: 13 weeks, oral, diet, Wistar

CC1(C)CN=C(NN=C(C=Cc2ccc(C(F)(F)F)cc2)C=Cc2ccc(C(F)(F)F)cc2)NC1 [Hydramethylnon]
LEL (Canidae; [6]): 1 mg/kg-day | NOEL (Canidae; [6]): 0.33 mg/kg-day

COP(=O)(OC)O/C(=C\Cl)c1cc(Cl)c(Cl)cc1Cl [Z-Tetrachlorvinphos]
NOEL (Rattus norvegicus [1]; [7]): 350 mg/kg-day | NOEL (Rattus norvegicus [2]; short-term, duration: 28 days, Wistar, Deaths + Clinical Observation: Soiled perineal region + Body Weight Changes: decrease + Blood Chemistry: AST decrease, gamma-GTP increase, …): < 10 mg/kg-day | NOEL (Rattus norvegicus [2]; short-term, duration: 28 days, Wistar, Deaths + Clinical Observation: Soiled perineal region + Body Weight Changes: decrease + Hematology: RBC decrease, HGB decrease, HCT decrease…): < 10 mg/kg-day

CC(C)CCCCCCOC(=O)c1ccccc1C(=O)OCCCCCCC(C)C [Diisononyl phthalate]
LOEL (Rattus norvegicus [1]; [8]): 500 mg/kg-day | NOEL (Rattus norvegicus [1]; [8]): 100 mg/kg-day | NOEL (Rattus norvegicus [3]): 750 mg/kg-day

C=C(C)C#N [Methacrylonitrile]
LOAEL (Canidae; [9]): 24 mg/m3 | NOAEL (Canidae; [9]): 9 mg/m3 | NOEL (Rattus norvegicus [2]; subchronic, Fischer 344, Deaths + Clinical Observation: Lethargy Lacrimation, tremors Convulsions Ataxia Abnormalbreathing + Body Weight Changes: decrease + …): < 7.5 mg/kg-day

CCCCC(C#N)(Cn1cncn1)c1ccc(Cl)cc1 (stereo not given) [Myclobutanil]
LEL (Rattus norvegicus [4]; testicular atrophy): 9.84 mg/kg-day | NOEL (Rattus norvegicus [4]; testicular atrophy): 2.49 mg/kg-day | NOEL (Rattus norvegicus [1]; duration: 10 days, oral, gavage, Sprague-Dawley, inactive + Negative + Negative + anti-androgenic + decrease in AST wt at 200 and serum testosterone 49% / increase in PPS at 400 and serum …): 50 mg/kg-day

CC(C)NC(=O)N1CC(=O)N(c2cc(Cl)cc(Cl)c2)C1=O
LEL (Canidae; [10]): 15 mg/kg-day | NOEL (Canidae; [10]): 4.2 mg/kg-day

CN=C=O [Methyl isocyanate]
LOAEL (Mus musculus; developmental, duration: 6 hours, inhalation, Swiss): < 2.33 mg/m3 | NOAEL (Mus musculus; reproduction developmental, duration: 6 hours, inhalation, F, Swiss): > 7 mg/m3 | NOAEL (Mus musculus; reproduction developmental, duration: 6 hours, inhalation, Swiss, generation: F0): > 7 mg/m3 | LOAEL (Rattus norvegicus [5]; developmental, duration: 0.5 hours, inhalation): < 0.495 mg/m3 | NOAEL (Rattus norvegicus [5]; reproduction developmental, duration: 8 minutes, inhalation, whole body, Wistar, generation: F0): > 3140 mg/m3 | LOAEL (Rattus norvegicus [5]; reproduction developmental, duration: 0.5 hours, inhalation, F): < 0.495 mg/m3 | NOAEL (Rattus norvegicus [5]; reproduction developmental, duration: 0.5 hours, inhalation, generation: F0): > 0.824 mg/m3

C=C(C)C(=O)OCCN(C)C [2-(Dimethylamino)ethyl methacrylate]
LC50 (Mus musculus; acute, inhalation): 1.8 µg/mL (≈ 11.4 µM) | LD50 (Mus musculus; acute, injection, intraperitoneal): 25 mg/kg | LD50 (Rattus norvegicus [5]; acute, dermal, Sprague-Dawley): > 2000 mg/kg | LC50 (Rattus norvegicus [5]; acute, inhalation): 0.62 µg/mL (≈ 3.94 µM) | LD50 (Rattus norvegicus [5]; acute, oral, gavage, Crj:CD): > 2000 mg/kg | NOAEL (Rattus norvegicus [5]; reproduction developmental, duration: 41 days, oral, gavage, Crj:CD, generation: F0): 200 mg/kg-day | NOAEL (Rattus norvegicus [5]; short-term, duration: 3 weeks, inhalation): 643 mg/m3 | NOAEL (Rattus norvegicus [5]; subchronic, duration: 41 days, oral, gavage, Crj:CD): 200 mg/kg-day | LD50 (Oryctolagus sp.): > 3000 mg/kg

CSc1nnc(C(C)(C)C)c(=O)n1N [Metribuzin]
LEL (Canidae; [11]): 37.5 mg/kg-day | NOEL (Canidae; [11]): 2.5 mg/kg-day | NOEL (Rattus norvegicus [1]; [7]): 120 mg/kg-day

c1ccc2cc3c(ccc4ccccc43)cc2c1 [Benz(a)anthracene]
LEL (Rattus norvegicus [1]; [12]): 1 mg/kg-day

C[n+]1ccc(-c2cc[n+](C)cc2)cc1 [Paraquat]
LEL (Canidae; [13]): 0.93 mg/kg-day | NOEL (Canidae; [13]): 0.45 mg/kg-day

COP(=S)(OC)Oc1ccc(SC)c(C)c1 [Fenthion]
LOEL (Rattus norvegicus [1]; duration: 7 days, oral, gavage, Fischer 344, active + Antiandrogenic + anti-androgenic): 25 mg/kg-day

CC(C)(C)C1CCC(O)CC1 (stereo not given) [4-tert-Butylcyclohexanol]
LD50 (Mus musculus; acute, injection, Intraperitoneal, CF1): ≥ 50 mg/kg and ≤ 100 mg/kg | LD50 (Rattus norvegicus [5]; acute, oral): 4200 mg/kg | LOAEL (Rattus norvegicus [5]; short-term, duration: 28 days, oral, gavage, Wistar): 150 mg/kg-day | LD50 (Oryctolagus sp.): > 5000 mg/kg

C[C@]12CCC(=O)C=C1CC[C@@H]1[C@@H]2CC[C@@]2(C)[C@H]1CC[C@]2(C)O [17-Methyltestosterone]
LOEL (Rattus norvegicus [1]; [14]): 80 mg/kg-day and 100 mg/kg-day | NOEL (Rattus norvegicus [1]; [14]): 20 mg/kg-day | LOEL (Rattus norvegicus [1]; duration: 7 days, injection, subcutaneous, Sprague-Dawley, androgenic): 0.16 mg/kg-day | LEL (Rattus norvegicus [1]; [12]): 10 mg/kg-day | LEL (Rattus norvegicus [1]; duration: 4 days, injection, subcutaneous): 0.5 mg/kg-day | LEL (Rattus norvegicus [1]; duration: 14 days, oral): 3 mg

CC(C)(C)C(=O)C(Oc1ccc(Cl)cc1)n1cncn1 (stereo not given) [Triadimefon]
LEL (Rattus norvegicus [4]; [15]): 25 mg/kg-day | NOEL (Rattus norvegicus [4]; [15]): 2.5 mg/kg-day | NOEL (Rattus norvegicus [1]; duration: 10 days, oral, gavage, Sprague-Dawley, inactive + Negative + Negative + both + decreased AGD, delayed PPS, decreased AST wt / inhibits CYP17 / increases liver wt 37% and …): 25 mg/kg-day

[Cl][Zn][Cl] [Zinc chloride]
LD50 (Mus musculus; acute, oral, gavage, Swiss): 1260 mg/kg and 605 mg/kg | NOAEL (Mus musculus; developmental, duration: 18 days, injection, Intraperitoneal, CF1): 12.5 mg/kg-day | NOAEL (Mus musculus; reproduction developmental, duration: 18 days, injection, Intraperitoneal, F, CF1): 12.5 mg/kg-day | LOAEL (Mus musculus; [16]): 5910 mg/kg-day | NOAEL (Mus musculus; [16]): 591 mg/kg-day | LOAEL (Rattus norvegicus [5]; short-term, duration: 4 weeks, oral, drinking water, Wistar): 12 mg/kg-day | LOAEL (Rattus norvegicus [5]; [17]): 2880 mg/kg-day | NOAEL (Rattus norvegicus [5]; [17]): 288 mg/kg-day

Source: EPA's ToxValDB 9.5
